Measured values published in ChEMBL document CHEMBL1157539, “Thousands of chemical starting points for antimalarial lead identification” (Nature, 2010).

Tested on: Plasmodium falciparum
Experiment: GSK_TCMDC: Inhibition of Plasmodium falciparum 3D7 in whole erythrocytes, using parasite LDH activity as an index of growth.
Format: functional, organism-based
Conditions: Plasmodium falciparum, 3D7

SMILES	XC50 [nM]
COc1cc2c(cc1OC)CN(CCc1ccc(NC(=O)c3cc4cc(OC(F)(F)F)ccc4[nH]3)cc1)CC2	535
CCCCOc1ccc(C(O)C(CN2CCCCC2)c2ccccc2)cc1 (configuration not stated)	893
O=C(NCCCCN1CCC(c2ccc3ccccc3c2O)CC1)c1ccc(-c2ccc(Cl)cc2)cc1	181
O=C(Cn1c(CCc2cccc(F)c2F)cc(=O)c2cccnc21)N(CCn1ccnc1)Cc1ccc(-c2ccc(C(F)(F)F)cc2)cc1	672
O=c1cc(NCCCNCc2cccc(OC(F)(F)C(F)F)c2)[nH]c2ccccc12	1270
Cc1cc(C(=O)Nc2ccc(-c3nc4ccccc4[nH]3)cc2)ccc1[N+](=O)[O-]	671
O=C(/C=C/c1ccc(Cl)c(Cl)c1)NCCCCCN1CCC(NC(=O)Nc2ccc(C(F)(F)F)cc2)CC1	750
N=C(N)Nc1cccc(NC(=O)Nc2cccc(NC(=N)N)c2)c1	258
C#CCNCc1ccc(-c2cccc(-c3nc4cccc(C)c4[nH]3)c2)cc1	818
CCCCCCCc1[nH]c2ccccc2c(=O)c1C	509
Cc1c(Cl)ccc2c(C(=O)Nc3ccncc3)cc(-c3cccnc3)nc12	777
COc1ccc2cc(C(C)NC3CCN(c4cccc(NC(=O)c5ccncc5)c4)CC3)ccc2c1 (configuration not stated)	1550
Cc1cc(N[C@@H](CC(C)C)C(=O)NCc2cccs2)nc(NCCc2ccc(F)cc2)n1	800
COc1cc(F)c2ncc(Cl)c(CCN3CCC(NCc4ccc5c(n4)NC(=O)CS5)CC3)c2c1	482
O=C(NCCc1ccccc1)N(Cc1cccc(-c2ccc(CNCc3ccc4c(c3)OCO4)cc2)c1)C1CCN(Cc2ccccc2)CC1	661
CCc1c(CCNCCCCCCNCCc2ccc(OC)cc2)ccc(OC)c1OC	871
Cc1cc(NC(=O)NCCN2CCC(NC(=O)c3ccc(F)cc3)CC2)c2ccccc2n1	331
Cc1ccc(CCC(C)NCC(O)c2cccc(C(F)(F)F)c2)cc1 (configuration not stated)	561
COc1cc2c(cc1C(F)(F)F)N(C(=O)Nc1cc(F)cc(-c3cncnc3)c1)CC2	500
O=C(Nc1ccc(-c2cccc(-c3nc4cc(F)ccc4[nH]3)c2)cc1)c1cnn2cccnc12	647
Cc1ccccc1CN1CCCN(Cc2ccc(C(=O)Nc3ccc(C(C)(C)C)cc3)cc2)CC1	863
COc1cc2nc(N3CCC(CNC(=O)c4ccc(OC(F)(F)F)cc4)CC3)nc(N)c2cc1OC	224
CCn1c(Cc2ccccc2)nnc1SCC(=O)N1c2ccccc2Sc2ccccc21	588
O=C(Nc1cccc(-c2ccc(-c3nc4cc(C(F)(F)F)ccc4[nH]3)cc2)c1)Nc1ccc(Cl)c(Cl)c1	889
COc1cccc(CN2CCCC(OC(c3ccccc3)c3ccccc3)C2)c1O (configuration not stated)	930

SMILES	XC50 [nM]
CN(c1ccc(NC(=O)Nc2cc(C(F)(F)F)ccc2F)cc1)c1ccnc(NCCN2CCOCC2)n1	512
CCC(=O)Nc1ccc(Nc2nc(C)cc(N3CCCC3)n2)cc1	1320
CCC(CO)NCC(O)Cn1c2ccc(Cl)cc2c2cc(Cl)ccc21 (configuration not stated)	768
COc1ccc2ncc(F)c(CCN3CCC(NCc4cc(Br)c5c(c4)OCCO5)CC3)c2n1	190
COc1ccccc1CCCN1C(=O)C(c2ccccc2)(c2ccccc2)N=C1N	265
N#Cc1ccc(-c2ccc(C(=O)NCCCCN3CCC(c4ccncc4)CC3)cc2)cc1	813
CS(=O)(=O)Nc1cccc(-c2cnc3[nH]cc(-c4ccc(CCC(=O)O)cc4)c3c2)c1	1060
CCc1c(CCNCCCCCCNCCc2ccc(OC)c(OC)c2C)ccc(OC)c1OC	1570
O=C(Nc1ccc(C(=O)Nc2ccc(C3=NCCN3)cc2)cc1)Nc1ccc(C2=NCCN2)cc1	180
Cc1ccc(-c2nc3cc(C(=O)NC4CCN(Cc5ccccc5)CC4)ccc3[nH]2)cc1	744
CC(=O)Nc1ccc(CN2CCC(N(C)c3cc(NC(=O)c4cccs4)ccn3)CC2)cc1	892
CCCCc1ccc(Cc2cnc3nc(N)nc(N)c3c2C)cc1	235
CCOC(=O)c1ccc(N2CCCCC2)c(NC(=O)C(Cl)(Cl)Cl)c1	849
CC(C)NCc1cccc(-c2ccc(NS(=O)(=O)c3cccc4cccnc34)cc2)c1	1080
O=C(Nc1cccc(C(F)(F)F)c1)c1cccc(S(=O)(=O)NCC2CCCN(Cc3ccccc3)C2)c1 (configuration not stated)	1100
NC(=O)c1sc(-n2cnc3ccccc32)cc1OCc1ccccc1[N+](=O)[O-]	702
CCNc1cc(C(=O)N[C@@H](Cc2ccccc2)[C@H](O)CN[C@H]2CCc3ccccc32)cc(N2CCCC2=O)c1	295
O=C(Nc1cccc(-c2cccc(-c3nc4cc(C(F)(F)F)ccc4[nH]3)c2)c1)c1ccoc1	277
CN(C)CCC(O)(c1ccc(Br)cc1)c1cccnc1 (configuration not stated)	831
CC(C)CC(C)NC(=O)C1Cc2c([nH]c3cc(Cl)ccc23)C2(CCN(CCc3ccccc3)CC2)N1 (configuration not stated)	815
c1ccc2c(c1)ncc1c3ccccc3[nH]c21	866
CCc1n[nH]c(C(=O)Nc2cccc(N3CCCC3)c2)c1C	1460
COc1ccc(CCNc2nc(NCc3ccccc3)c3cc(OC)c(OC)cc3n2)cc1OC	326
COc1ccc(Cn2c(=O)[nH]c3cc(C(=O)NC4CCN(Cc5ccccc5)CC4)ccc3c2=O)cc1	751
COc1ccc(N2CCN(CCCCNC(=O)c3ccc(NC(=O)c4cc(C(F)(F)F)cc(C(F)(F)F)c4)cc3)CC2)c(OC)c1	153

SMILES	XC50 [nM]
O=C(Cc1c(-c2ccccc2)[nH]c2ccccc12)NC1CCC(CN2CCC(c3c[nH]c4ccccc34)CC2)CC1 (configuration not stated)	476
O=C(/C=C/c1ccc(Cl)c(Cl)c1)N1CCC(C(O)CN2CCC(c3c[nH]c4ccccc34)CC2)CC1 (configuration not stated)	859
CN1CC=C(c2c[nH]c3ccc(Oc4ccccc4)cc23)CC1	253
c1cc(-c2ccc(CNCCCn3ccnc3)cc2)cc(-c2nc3ccccc3[nH]2)c1	113
CCCC1N=C(N)N=C(N)N1c1ccc(Cl)cc1 (configuration not stated)	46.7
Fc1ccc(-c2cc(NCCCn3ccnc3)nc(-c3cccnc3)n2)cc1	974
Fc1ccc2[nH]c(-c3ccc(-c4ccc(CN5CCN(CCN6CCOCC6)CC5)cc4)cc3)nc2c1	183
Cc1ccccc1CNc1nccc(NCCC(=O)Nc2ccccc2)n1	892
COc1ccc(-c2cccc(NC(=O)c3ccc(F)cc3)c2)cc1CN1CCCN(C)CC1	833
CCCN1CCc2c(sc3nc(SCC(=O)Nc4ccc(C)cc4)n(-c4ccc(C)cc4)c(=O)c23)C1	869
COc1cccc(Cn2ccc3c4c(N)nc(N)nc4ccc32)c1	3.2
Cc1cc(O)cc2c(C3CCN(CC4CCC(NC(=O)/C=C/c5ccccc5Cl)CC4)CC3)c[nH]c12 (configuration not stated)	900
CC(O)c1cccc(-c2ccc(Nc3ccnc4cc(-c5nccs5)ccc34)cc2)c1 (configuration not stated)	1010
CCOC(=O)N1NC(=O)N(c2ccccc2)C1(c1ccccc1)c1ccccc1	697
Cc1cc(C)cc(Oc2c(C(F)(F)F)oc3c(CN4CC(C)OC(C)C4)c(O)ccc3c2=O)c1 (configuration not stated)	939
Cc1cccc2nc(-c3ccc(-c4ccc(CN5CCN(CCN6CCOCC6)CC5)cc4)s3)[nH]c12	245
N=C(N)c1ccc(-c2cc3ccc(C(=N)N)cc3[nH]2)cc1	59.9
O=P(O)(O)Oc1c(Br)cc(Br)cc1-c1cc(Br)cc(Br)c1O [BROMOFENOFOS]	173
O=C(/C=C/c1ccc(Cl)c(Cl)c1)NCCCCCN1CCC(CCNC(=O)/C=C/c2ccc(Cl)c(Cl)c2)CC1	561
Cc1cc(C)c2oc(-c3cccc(NC(=O)c4ccc([N+](=O)[O-])o4)c3C)nc2c1	1150
Oc1c(Br)cc2oc3c(c2c1CNCc1ccccc1)CCCC3	961
N[C@@H](CCNCc1ccc(-c2cccnc2)cc1)Cc1ccc(F)c(F)c1	797
CC(Cc1ccc(CSC(C)C)cc1)NCC(O)c1cccc(Cl)c1 (configuration not stated)	603
Cc1cc(-c2c[nH]c3ncc(-c4cccc5ncccc45)cc23)ccc1C(=O)O	761
O=S(=O)(NCCN1CCCC1)c1ccc(-c2cccc(CNCc3ccsc3)c2)s1	896

SMILES	XC50 [nM]
CCn1c(-c2nonc2N)nc2c(Cl)ncc(O[C@H](CCN)c3ccccc3F)c21	1460
Cc1ccc(F)c(OCC2CCN(c3ncc(C(=O)NC4CC4)cc3Cl)CC2)c1	902
O=C1Nc2ccc3ncccc3c2/C1=C/Nc1ccc(N2CCN(CCO)CC2)cc1	1270
c1ccc2[nH]c(-c3ccc(-c4ccc(CN5CCN(c6ccncc6)CC5)cc4)s3)nc2c1	202
CC(C)(c1ccccc1)c1ccc(O)c(CN2CCOCC2)c1	984
O=C(NCCc1ccccc1)[C@H](Cc1ccccc1)Nc1ccnc(NCC2CCCCC2)n1	1380
CN1CCN(c2ccc(Cl)cc2NC(=O)C2COc3ccccc3O2)CC1 (configuration not stated)	810
Cc1cc(OCC2CCN(c3ncc(C(=O)Nc4ccccc4)cc3Cl)CC2)ccc1F	899
COc1cccc(CCc2ccc(O)c3c2C[C@H]2C[C@H]4[C@H](N(C)C)C(O)=C(C(N)=O)C(=O)[C@@]4(O)C(O)=C2C3=O)c1	850
CCN1CCC(N(Cc2ccc(-c3ccc(Cl)cc3)cc2)C(=O)Cn2c(CCc3cccc(F)c3F)cc(=O)c3ccccc32)CC1	703
COc1ccc2nccc([C@@H](O)CN3CCC(NC(=O)C(=Cc4ccc(Cl)cc4Cl)c4ccc(-c5ccccc5)cc4)CC3)c2c1	993
O=C(/C=C/c1ccc(Cl)c(Cl)c1)NCCCCCN1CCC(CCCNC(=O)Nc2ccc(C(F)(F)F)cc2)CC1	872
COc1ccc(C(=C(C)CC(C)C(=O)O)c2ccccc2)cc1 (configuration not stated)	845
CCC[C@@H]([C@@H](CC1CCCCC1)C(=O)NC(C(=O)Nc1nccs1)C(CC)c1ccccc1)N(O)C=O (some centres not stated)	689
CO/C(=C\C=C\c1cc2cc(Cl)c(Cl)cc2[nH]1)C(=O)NCCCN1CCN(Cc2ccccc2)CC1	912
COc1ccccc1-c1cccc(Nc2c(Nc3ccc(Cl)cc3)c(=O)c2=O)c1	878
Cc1cc(F)ccc1[C@H]1CNCCN1C(=O)N(C)C(C)(C)c1cc(C(F)(F)F)cc(C(F)(F)F)c1	594
Cc1cc(=O)c(-c2ccc(Oc3cccc(Cl)c3)cc2)c(C)[nH]1	602
COc1ccc(NC(=O)c2ccc(-c3nc(-c4ccccc4)cs3)cc2)cc1N1CCN(C)CC1	992
COc1ccc(-c2cncc3ccc(C(=O)NCc4ccncc4)nc23)cc1	736
CC(C)CNCc1ccc(-c2cccc(CN(CCN(C)C)C(=O)NCCc3ccccc3)c2)cc1	1060
CC(C)c1ccc(NS(=O)(=O)c2cccc(C(=O)NC3CCN(CC4CCCCC4)CC3)c2)cc1	1300
